Experimental data taken from patent US20020010210A1, “PHARMACEUTICAL PREPARATION AND METHOD FOR TREATING CANCER” (priority 1997, published 2002).

Experiments:
[1] = tested on: spontaneous breast cancer rat cells (SST-2); assay: Lung metastasis of implanted SST-2 cells in SHR rats (Example 3); format: in vivo; conditions: 35 days after implantation; for Number of Metastasis Colonies (average), Peroral Administration: 1 mg/rat perorally from day of implantation to day 34; for Number of Metastasis Colonies (average), Subcutaneous Injection: 1 mg/rat subcutaneous injection from day of implantation to day 34
Protocol: 1×100,000 spontaneous breast cancer rat cells (SST-2) were subcutaneously implanted into the back of a rat (SHR rat) (5 rats per group) suffering from spontaneous hypertension. After 35 days, the rats were sacrificed, and the lung weight and the number of colonies formed were measured to examine the degree of metastasis of SST-2 to the lung. The compounds shown in Tables 3 and 4 each was administered perorally or through subcutaneous injection in a dose of 1 mg/rat over the period from the day of implantation to 34 days after implantation. The number of colonies formed was compared with that in the control group not subjected to any treatment, to examine metastasis to the lung.

[2] = tested on: bovine aortic endothelial BAE-2 cells; assay: Intracellular ascorbic acid cumulative amount in BAE-2 cells (Example 2); format: cell-based; conditions: 5 μM in culturing medium, cultured 20 hours
Protocol: About 6×10^5 bovine aortic endothelial BAE-2 cells (available from Hiroshima Prefecture University) were sowed on a 60 mmφ plate and cultured in a minimum essential culturing medium containing 20% dialyzed bovine fetus serum (available from Moregate) for 2 hours. After displacing with the same culturing medium containing 5 μM (in the case of magnesium ascorbic acid-2-phosphate, 50 μM) of ascorbic acid or a derivative thereof, the cells were further cultured for 20 hours.

[3] = tested on: normal human adult mamma epidermis keratinocyte; assay: Intracellular ascorbic acid cumulative amount in keratinocytes (Example 1); format: cell-based; conditions: addition amount 2 μM, cultured 20 hours; difference to culture without addition
Protocol: About 6×10^5 cells of a normal human adult mamma epidermis keratinocyte (available from Kurashiki Boseki KK) were sowed on a 60 mm plate and cultured in a culturing medium (manufactured by Krashiki Boseki KK) for the increase of serum-free epidermis keratinocyte for 2 hours. After displacing with the same culturing medium having added thereto from 2 to 50 μM of ascorbic acid or a derivative thereof, the cells were further cultured for 20 hours. The cells were collected by trypsin treatment and the number of cells was counted using a Coulter Counter Model DN (trade name, manufactured by Coulter Electronics). The cells thus collected were washed with Hank's equilibrium salt solution, pulverized in an ultrasonic homgenizer, filtered through a Mol-cut II (UFP1LCC) (trade name, produced by Nippon Milipore KK), analyzed by HPLC using Shodex ODSpak F411A column (trade name, produced by Showa Denko KK), and the amount of ascorbic acid and derivatives thereof were measured to determine the intracellular cumulative amount.
As a control, culturing was performed in the same manner as above except for not adding ascorbic acid or a derivative thereof, and the amount of intracellular ascorbic acid was quantitatively determined.

Compound | Number of Metastasis Colonies (average), Peroral Administration [1] | Number of Metastasis Colonies (average), Subcutaneous Injection [1] | Intracellular Cumulative Amount [2] | Intracellular Cumulative Amount [3]
O=C1O[C@H]([C@@H]2COC(c3ccccc3)O2)C(O)=C1O (stereo partly drawn) [L-Ascorbic acid-5,6-O-benzylidene] | 85.8 | 84.2 | 0.0012 Pmole/cell | 
O=C1OC(C2COC(c3cccc([N+](=O)[O-])c3)O2)C([O-])=C1O.[Na+] [Sodium 5,6-(3-nitro)benzylidene-L-ascorbate] | 88.6 | 84.2 | 0.0007 Pmole/cell | 
Magnesium L-ascorbic acid 2-phosphate-6-laurate |  |  | 0.0070 Pmole/cell | 0.0033 Pmole/cell
Sodium L-ascorbic acid 2-phosphate-6-palmitate | 30.6 | 1.6 | 0.0068 Pmole/cell | 0.0040 Pmole/cell
